In one data set the test system is DU145 PC cells. In words: Cytotoxicity of FdUMP[10], laboratory studies and NCI 60 cell line screen. Type of data set: cell-based.
For another data set, the system named is PC3 cells. The data set is described as above. Type of data set: cell-based, human.
In a further data set the test system is LNCaP cells. The description is as above. Type of data set: cell-based, human.
Another data set relates to colon cancer cells. The data set is described as follows: Uptake of FdUMP[10] multimer in other cancer cells. Type of data set: cell-based. Conditions: other types of cancer cells (e.g. colon cancer).
The test system of data set [1] is PC cells and normal prostatic epithelial cells. In words: Trypan blue exclusion assays. Type of data set: cell-based, human. The method, then:
The cytotoxicity of the candidate modified aptamers is also evaluated with regard to prostate cells that have been obtained from normal prostate tissue derived from radical prostatectomies. A procedure for establishing primary human epithelial cell cultures from the disease-free regions of the tissue (based on histology) has been described (Peehl et al., In Vitro Cell Dev. Biol. 22: 90 (1986); Peehl et al., In Vitro Cell Dev. Biol. 24: 530-536 (1988); Barreto et al., Cancer Epidemiol. Biomarkers Prey. 9: 265-270 (2000). The cultures are grown in MCDB 105 medium (Sigma, St. Louis, Mo.) that has been supplemented with growth factors and hormones as described previously (Peehl et al., In Vitro Cell Dev Biol 22: 90 (1986)). Trypan blue exclusion is used as a marker of viable cells. The data are analyzed to identify those candidate modified aptamers sequences that are highly efficient at killing PC cells that express xPSM, but that are not cytotoxic towards normal prostate cells. Candidate modified aptamers that display the greatest differential cytotoxicity are further developed as drugs for the treatment of human PC.
(but not 5FU) is currently under investigation.

Data set [2] relates to prostate cancer cells.
Data set [3] has as its system DU145 prostate cancer cells.
Data set [4] concerns PC3 prostate cancer cells.
The test system of data set [5] is prostate cancer cells. The source holds these as a separate data set.
A short description of data set [6]: UV thermal melt (hyperchromicity). Type of data set: physicochemical. As for the experimental part:
The structural characteristics of the parent aptamer and modified aptamers were determined using circular dichroism (CD) spectroscopy and ultraviolet (UV) hyperchromicity measurements. The data for the CD spectroscopy are shown in FIGS. 4A (modified aptamer) and 4B (parent aptamer). The circular dichroism curve acquired before thermal melting is in blue and that obtained post-melt is green. A maximum positive ellipticity is observed at 270 nm consistent with a highly folded structure, probably consisting of A-form helices. The circular dichroism spectra for the modified aptamers are indistinguishable from circular dichroism spectra for the parent aptamer. The UV thermal melt data is shown in FIGS. 4C (modified aptamer) and 4D (parent aptamer). The melting temperature for parent aptamer and the modified aptamers is about 55° C.

In data set [7] the target is T1, extracellular domain of PSMA (xPSM) (Homo sapiens, UniProt Q04609).
T1 construct: express the 706 amino acids comprising the extracellular domain of PSMA from Sf-9 (insect) cells using baculovirus; made in house; host or cells: Sf-9 insect cells, baculovirus (pBacGus3 vector); cDNA from LNCaP cells
The conditions noted are these: cited from earlier work.

T1 sequence (Q04609 44-750 limits assumed): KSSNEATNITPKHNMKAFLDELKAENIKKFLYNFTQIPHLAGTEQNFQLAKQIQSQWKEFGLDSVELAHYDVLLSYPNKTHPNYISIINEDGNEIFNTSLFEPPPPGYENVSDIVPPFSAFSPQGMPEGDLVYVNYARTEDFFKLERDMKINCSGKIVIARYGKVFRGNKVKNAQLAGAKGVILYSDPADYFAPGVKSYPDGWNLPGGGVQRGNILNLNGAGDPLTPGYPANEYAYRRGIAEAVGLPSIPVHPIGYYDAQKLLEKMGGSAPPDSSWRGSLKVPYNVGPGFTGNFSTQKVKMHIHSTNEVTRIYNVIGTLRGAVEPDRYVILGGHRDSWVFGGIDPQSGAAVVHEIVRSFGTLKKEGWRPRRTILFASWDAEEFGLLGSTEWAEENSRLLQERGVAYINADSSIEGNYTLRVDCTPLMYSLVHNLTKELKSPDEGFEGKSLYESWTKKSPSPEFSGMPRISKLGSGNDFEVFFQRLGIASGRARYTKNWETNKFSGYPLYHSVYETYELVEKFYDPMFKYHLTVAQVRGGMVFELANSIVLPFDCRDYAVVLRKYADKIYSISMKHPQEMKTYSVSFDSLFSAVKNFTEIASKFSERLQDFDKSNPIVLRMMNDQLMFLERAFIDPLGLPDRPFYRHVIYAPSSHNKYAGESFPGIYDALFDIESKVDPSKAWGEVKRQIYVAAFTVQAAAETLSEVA

As for FdUMP[10], the tolerability in vivo result is recorded as “very well-tolerated”. Besides, the “times more potent than 5FU” value with DU145 PC cells (DU145 PC cells) is recorded as 1,585 time. The GI50 in the data set on DU145 PC cells (DU145 cells, GI50 value from the NCI 60 cell line screen, read-out: IC50 (the source's name)) was found to be 5.01 nM. Besides, the “sensitivity of PC3 cells” value in the data set on PC3 cells is “highly sensitive”. The “times more potent than 5FU” value in the data set with PC3 cells (PC3 cells) worked out at 631 times. Also, the “sensitivity of LNCaP cells” value in the data set on LNCaP cells is recorded as “highly sensitive”. In addition, in the data set with colon cancer cells, the “uptake of multimer relative to prostate cancer cells” value was “less efficient”. Moreover, in data set [1], the “differential sensitivity between PC cells and normal prostatic epithelial cells” value is “large differential sensitivity”. Moreover, in the data set with prostate cancer cells [2], the “cytotoxicity relative to 5FU or FdU” value was “substantially more cytotoxic” and the “drug concentrations at which cytotoxic towards prostate cancer cells” value is 10 to 100 nM. In addition, in data set [3], the “cytotoxicity relative to monomeric fluoropyrimidines (5FU, FdU, FdUMP)” value is reported as “substantially more cytotoxic”. Besides, in data set [4], the “cytotoxicity relative to monomeric fluoropyrimidines (5FU, FdU, FdUMP)” value was “substantially more cytotoxic”. In the data set on prostate cancer cells [5], the “effect of phosphatase or nucleotidase inhibitor on cytotoxicity” value is reported as “Neither inhibitor substantially reduced the cytotoxicity”. The “uptake in multimeric form” value in the data set with prostate cancer cells [5] (prostate cancer cells) is given as “efficiently take up”.
As to “5′rGGGAGGACGAUGCGGAUCAGCCAUGUUUACGUCAC UCCUUGUCAAUCCUCAUCGGC-3′ (GGGAGGACGAUGCGGAUCAGCCAUGUUUACGUCACUCCUUGUCAAUCCUCAUCGGC; RNA, backbone not given here) [A10-3]”, the “stability of folded structure” value in [6] (37° C.) is “stable at 37 °C”. Besides, in data set [6] (UV thermal melt), the melting temperature result was “about 55 °C”. In addition, the “binding affinity for xPSM” value in data set [7] is “high affinity”.
